According to PMC12703428, “Development of Granzyme A Turn‐ON Fluorescent Activity‐Based Probes” (Chembiochem, 2025):
Square brackets hold non-standard residues; d marks the D form. Ends that are not written are not given here. Oic = O=C(O)[C@@H]1C[C@@H]2CCCC[C@@H]2N1; Tic = O=C(O)[C@@H]1Cc2ccccc2CN1

Target: T1, recombinant human GzmA (hGzmA) (Homo sapiens, UniProt P12544)
T1 construct: active, mature form; purchased Enzo Life Sciences ALX-201-118-C010
T1 sequence (P12544 29-262): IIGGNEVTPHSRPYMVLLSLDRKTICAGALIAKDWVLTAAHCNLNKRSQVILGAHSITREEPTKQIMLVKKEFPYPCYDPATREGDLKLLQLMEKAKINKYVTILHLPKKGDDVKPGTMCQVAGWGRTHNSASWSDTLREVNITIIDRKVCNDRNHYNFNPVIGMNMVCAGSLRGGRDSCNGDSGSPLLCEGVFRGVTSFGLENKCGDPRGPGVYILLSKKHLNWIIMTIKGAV
Experiment: In-gel fluorescence labeling of recombinant active hGzmA
Assay type: biochemical
Conditions: hGzmA 100 nM, 37 °C; for Labeling of recombinant hGzmA (in-gel Cy5 fluorescence): varying probe concentrations, 2 h, SDS-PAGE
Experimental: Figure 3 GzmA ABPs covalently and competitively label active human and mouse GzmA. […] Recombinant hGzmA (100 nM) was incubated with varying concentrations of each ABP at 37 °C. B) Competitive labeling of hGzmA. Recombinant hGzmA (100 nM) was preincubated with covalent inhibitors 1 or 2 (5 μM) for 2 h, followed by labeling with ABPs 3 –5 (50 nM) for 2 h at 37 °C. Note: Pro‐form of hGzmA (the first lane) is not effectively stained by SYPRO‐Ruby. C) Structure of qABP 6. D) Quenched natures of 5 and 6. […] F) Labeling of mGzmA (1 μM) with 5 and 6 (1 μM, 24 h, 37 °C). Protein samples were analyzed by SDS‐PAGE and in‐gel fluorescence scanning for Cy5 signal and SYPRO Ruby staining. […]
C. In-gel fluorescence imaging
For recombinant enzyme labeling, working solutions of hGzmA (purchased from R&D Systems, Cat. No. 2905-SE-010 for pro-from and Enzo Life Sciences, Cat. No.: ALX-201-118-C010 for active, mature form) were prepared by diluting a 12.6 µM stock in the following assay buffer: 50 […]
mM Tris, 100 mM NaCl, 5 mM CaCl2, 0.01% (v/v) Tween-20, pH 7.5. […]
In-gel fluorescence and
SYPRO-Ruby staining images were acquired on a Typhoon FLA9500 instrument, while western blot images were acquired on an AMHERST ImageQuant 800 instrument.
Conditions for probe/inhibitor treatment for in-gel fluorescence analysis: Inhibitors and probes were incubated with active (or pro-) GzmA followed by treatment with 4X SDS reducing sample buffer. Samples were then heated to 100 °C for 5 min, brought to room temperature, and centrifuged. 20 µL of each sample was loaded onto a 15% polyacrylamide gel, which was then subjected to electrophoresis followed by the acquisition of in-gel fluorescence images. GzmA labeling was confirmed by western blotting, while protein loading was confirmed with SYPRO-Ruby staining. Incubation conditions for each figure/experiment are described below:
Conditions for Figure 3A: For labeling comparison between 3, 4, and 5, 100 nM of human GzmA was incubated with various concentrations of each probe for 2 h at 37 °C. For time-dependent labeling, 50 nM of 5 was incubated with 100 nM of human GzmA at 37 °C for the specified durations. Final reaction volume for both was 20 µL.
Conditions for Figure 3B: 100 nM of human GzmA was incubated with DMSO or 5 µM of 1 or 2 for 2 h at 37 °C in Eppendorf tubes. 0.5 µL of a 2 µM solution of 3, 4, or 5 in DMSO was then spiked into the Eppendorf tube, yielding a final probe concentration of 50 nM. The solution was incubated for another 2 h at 37 °C. Final reaction volume was 20 µL.
Conditions for Figure 3E: 100 nM of human GzmA was incubated with various concentrations of 5 or 6, respectively, for 2 h at 37 °C. Final reaction volume was 20 µL.
Conditions for Figure 3F: 1 µM of mouse GzmA was incubated with 1 µM of 5 or 6, respectively, for 24 h at 37 °C. Final reaction volume was 20 µL.
Conditions for Figure 4A: 1 mg/mL of lysates was incubated with various concentrations of 5 or 6, respectively, for 1 h at 37 °C.
Conditions for Figure 4C: Various concentrations of probes 3-6 were incubated with 1x10^6 NK-92 cells for 2 h at 37 °C in a humidified incubator. Cells were centrifuged, washed with PBS (x2) and lysed with ~40 µL of ice-cold RIPA buffer. Lysates were collected, protein concentration was measured with PIERCE BCA protein assay and samples were analyzed with in-gel fluorescence and GzmA western blotting. […]
All flow cytometry data were collected on BD LSRFortessa and FACSymphony A5 Cell Analyzers and analyzed with FlowJo software. Briefly, cells were processed according to the intended protocols for each experiment. Thereafter, cells were pelleted, fixed in the dark for 20 min at room temperature (Fixation buffer: BioLegend #420801), and pelleted again by centrifugation. Fixed cells were then resuspended in 1x intracellular staining perm wash buffer (BioLegend #421002), followed by centrifugation two times. Fixed/Permeabilized cells were then resuspended in […]

| Substance | Labeling of recombinant hGzmA (in-gel Cy5 fluorescence) | Concentration and time dependence of labeling of active hGzmA (time course with 50 nM probe) |
| --- | --- | --- |
| GFFR [compound 7] | lower labeling efficiency for both hGzmA and mGzmA compared with probes 5 and 6 |  |
| IGNR [compound 5] | efficiently label recombinant human GzmA (hGzmA) at submicromolar concentrations | concentration‐ and time‐dependent labeling |
| [Tic]G[Oic]R [compound 6] | efficiently (and slightly more strongly than 5) labeled |  |
